Tested on: Hs578T complex spheroid growth, percent test/control
Test: Anticancer human tumor Hs578T cell line growth inhibition [AhR];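 further: luminescent viability signal as a proxy for spheroid growth; spheroids exposed to agents for one week after three days of growth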
Settings: for viability, T/C: stronger effect = lower value
In short: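 Spheroids combined tumor cells with HUVEC endothelial cells and human MSCs as stroma. AhR antagonists were paired with standard or investigational drugs, each dosed in half-log steps down from near clinical Cmax, or from 10 microM where Cmax was unknown.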

[1] = curve of first compound, second compound 0.1 µM
[2] = curve of first compound, second compound 0.316 µM
[3] = curve of first compound, second compound 1 µM
[4] = curve of first compound, second compound 3.16 µM
[5] = curve of first compound, second compound 10 µM
[6] = second compound 0.1 µM, first compound 0.0316 µM
[7] = second compound 0.1 µM, first compound 0.1 µM
[8] = second compound 0.1 µM, first compound 0.316 µM
[9] = second compound 0.1 µM, first compound 1 µM
[10] = second compound 0.1 µM, first compound 3.16 µM
[11] = second compound 0.1 µM, first compound 10 µM
[12] = second compound 0.316 µM, first compound 0.0316 µM
[13] = second compound 0.316 µM, first compound 0.1 µM
[14] = second compound 0.316 µM, first compound 0.316 µM
[15] = second compound 0.316 µM, first compound 1 µM
[16] = second compound 0.316 µM, first compound 3.16 µM
[17] = second compound 0.316 µM, first compound 10 µM
[18] = second compound 1 µM, first compound 0.0316 µM
[19] = second compound 1 µM, first compound 0.1 µM
[20] = second compound 1 µM, first compound 0.316 µM
[21] = second compound 1 µM, first compound 1 µM
[22] = second compound 1 µM, first compound 3.16 µM
[23] = second compound 1 µM, first compound 10 µM
[24] = second compound 3.16 µM, first compound 0.0316 µM
[25] = second compound 3.16 µM, first compound 0.1 µM
[26] = second compound 3.16 µM, first compound 0.316 µM
[27] = second compound 3.16 µM, first compound 1 µM
[28] = second compound 3.16 µM, first compound 3.16 µM
[29] = second compound 3.16 µM, first compound 10 µM
[30] = second compound 10 µM, first compound 0.0316 µM
[31] = second compound 10 µM, first compound 0.1 µM
[32] = second compound 10 µM, first compound 0.316 µM
[33] = second compound 10 µM, first compound 1 µM
[34] = second compound 10 µM, first compound 3.16 µM
[35] = second compound 10 µM, first compound 10 µM

What does the source list for `COc1cc(C2c3cc4c(cc3C(OC3OC5COC(C)OC5C(O)C3O)C3COC(=O)C23)OCO4)cc(OC)c1O` (centres undefined) + CC(CO)NC(=O)c1cc(-c2ccc(Cl)cc2)nn(-c2cnn(C)c2)c1=O?
IC50 [1]: > 10 µM; IC50 [2]: > 10 µM; IC50 [3]: > 10 µM; IC50 [4]: > 10 µM; IC50 [5]: > 10 µM; viability, T/C [6]: 103%; viability, T/C [7]: 109%; viability, T/C [8]: 87.9%; viability, T/C [9]: 79.2%; viability, T/C [10]: 81%; viability, T/C [11]: 64.9%; viability, T/C [12]: 111%; viability, T/C [13]: 99.2%; viability, T/C [14]: 105%; viability, T/C [15]: 83.2%; viability, T/C [16]: 73.8%; viability, T/C [17]: 57.1%; viability, T/C [18]: 108%; viability, T/C [19]: 123%; viability, T/C [20]: 88.7%; viability, T/C [21]: 80.1%; viability, T/C [22]: 89.1%; viability, T/C [23]: 60.5%; viability, T/C [24]: 116%; viability, T/C [25]: 102%; viability, T/C [26]: 99.9%; viability, T/C [27]: 86.2%; viability, T/C [28]: 79.2%; viability, T/C [29]: 60.7%; viability, T/C [30]: 83.7%; viability, T/C [31]: 88.3%; viability, T/C [32]: 89.1%; viability, T/C [33]: 76.6%; viability, T/C [34]: 83.4%; viability, T/C [35]: 58.9%

Which IC50 [1] does the source give for `NS(=O)(=O)OCC1CC(n2ccc3c(NC4CCc5ccccc54)ncnc32)CC1O` (centres undefined) + CC(CO)NC(=O)c1cc(-c2ccc(Cl)cc2)nn(-c2cnn(C)c2)c1=O here?
Its IC50 is 0.914 µM.

What about the IC50 [2] of the same compound?
The IC50 was 0.995 µM.

What about the IC50 [3] of the same compound?
The IC50 was 1.24 µM.

What about the IC50 [4] of the same compound?
Its IC50 is 2.01 µM.

What about the IC50 [5] of the same compound?
Its IC50 is 2.32 µM.

What about the viability, T/C [6] of the same compound?
Its viability, T/C is 104%.

What about the viability, T/C [7] of the same compound?
Its viability, T/C is 95.3%.

And the viability, T/C [8]?
Its viability, T/C is 69.9%.

And the viability, T/C [9]?
Its viability, T/C is 47.6%.

And the viability, T/C [10]?
The viability, T/C was 41.4%.

What about the viability, T/C [11] of the same compound?
The viability, T/C was 33%.

What about the viability, T/C [12] of the same compound?
The viability, T/C was 114%.

What about the viability, T/C [13] of the same compound?
The viability, T/C was 81%.

What about the viability, T/C [14] of the same compound?
Its viability, T/C is 75%.

And the viability, T/C [15]?
The viability, T/C was 50%.

And the viability, T/C [16]?
The viability, T/C was 30.1%.

What about the viability, T/C [17] of the same compound?
Its viability, T/C is 29.4%.

And the viability, T/C [18]?
The viability, T/C was 109%.

What about the viability, T/C [19] of the same compound?
The viability, T/C was 90.6%.

And the viability, T/C [20]?
The viability, T/C was 77.9%.

And the viability, T/C [21]?
Its viability, T/C is 52.7%.

And the viability, T/C [22]?
The viability, T/C was 34.7%.

What about the viability, T/C [23] of the same compound?
The viability, T/C was 27.8%.

And the viability, T/C [24]?
Its viability, T/C is 119%.

What about the viability, T/C [25] of the same compound?
The viability, T/C was 91.3%.

And the viability, T/C [26]?
The viability, T/C was 90.2%.

What about the viability, T/C [27] of the same compound?
The viability, T/C was 55.9%.

What about the viability, T/C [28] of the same compound?
Its viability, T/C is 41.6%.

And the viability, T/C [29]?
Its viability, T/C is 34.8%.

What about the viability, T/C [30] of the same compound?
The viability, T/C was 95.1%.

And the viability, T/C [31]?
Its viability, T/C is 96.6%.

And the viability, T/C [32]?
The viability, T/C was 88.9%.

What about the viability, T/C [33] of the same compound?
Its viability, T/C is 65.2%.

What about the viability, T/C [34] of the same compound?
The viability, T/C was 44.1%.

What about the viability, T/C [35] of the same compound?
Its viability, T/C is 40.8%.

For `Cc1ccccc1N=Nc1ccc(NC(=O)c2ccnn2C)c(C)c1`, which viability, T/C (compound 0.1 µM) is on record?
Its viability, T/C is 101% [middle of 20 runs].

What about the viability, T/C (compound 1 µM) of the same compound?
The viability, T/C was 102% [middle of 20 runs].

And the viability, T/C (compound 10 µM)?
Its viability, T/C is 64.6% [middle of 20 runs].

What about the IC50 (compound alone, run of 08/22/2022) of the same compound?
The IC50 was over 10 µM.

`O=C(c1cc(Cc2n[nH]c(=O)c3ccccc23)ccc1F)N1CCN(C(=O)C2CC2)CC1` + CC(CO)NC(=O)c1cc(-c2ccc(Cl)cc2)nn(-c2cnn(C)c2)c1=O was tested. Which IC50 [1] did it give?
Its IC50 is over 10 µM.

What about the IC50 [2] of the same compound?
The IC50 was over 10 µM.

What about the IC50 [3] of the same compound?
Its IC50 is over 10 µM.

What about the IC50 [4] of the same compound?
Its IC50 is over 10 µM.

What about the IC50 [5] of the same compound?
The IC50 was over 10 µM.

And the viability, T/C [6]?
The viability, T/C was 113%.

And the viability, T/C [7]?
The viability, T/C was 112%.

What about the viability, T/C [8] of the same compound?
The viability, T/C was 109%.

And the viability, T/C [9]?
Its viability, T/C is 104%.

What about the viability, T/C [10] of the same compound?
The viability, T/C was 96.3%.

What about the viability, T/C [11] of the same compound?
The viability, T/C was 93.5%.

What about the viability, T/C [12] of the same compound?
The viability, T/C was 110%.

What about the viability, T/C [13] of the same compound?
Its viability, T/C is 115%.

And the viability, T/C [14]?
Its viability, T/C is 114%.

What about the viability, T/C [15] of the same compound?
Its viability, T/C is 104%.

And the viability, T/C [16]?
Its viability, T/C is 98.9%.

What about the viability, T/C [17] of the same compound?
The viability, T/C was 89.7%.

What about the viability, T/C [18] of the same compound?
The viability, T/C was 106%.

And the viability, T/C [19]?
Its viability, T/C is 113%.

What about the viability, T/C [20] of the same compound?
The viability, T/C was 121%.

And the viability, T/C [21]?
The viability, T/C was 108%.

And the viability, T/C [22]?
Its viability, T/C is 110%.

What about the viability, T/C [23] of the same compound?
The viability, T/C was 94.7%.

What about the viability, T/C [24] of the same compound?
Its viability, T/C is 122%.

What about the viability, T/C [25] of the same compound?
Its viability, T/C is 124%.

What about the viability, T/C [26] of the same compound?
Its viability, T/C is 126%.

What about the viability, T/C [27] of the same compound?
The viability, T/C was 105%.

And the viability, T/C [28]?
The viability, T/C was 106%.

What about the viability, T/C [29] of the same compound?
Its viability, T/C is 88.5%.

What about the viability, T/C [30] of the same compound?
The viability, T/C was 96.2%.

And the viability, T/C [31]?
Its viability, T/C is 107%.

What about the viability, T/C [32] of the same compound?
Its viability, T/C is 112%.

And the viability, T/C [33]?
Its viability, T/C is 101%.

What about the viability, T/C [34] of the same compound?
The viability, T/C was 99.9%.

And the viability, T/C [35]?
Its viability, T/C is 86.9%.

With `CC(C)c1c(-c2ccccc2)nc2c(C#N)c[nH]n2c1=O` + Cc1ccccc1N=Nc1ccc(NC(=O)c2ccnn2C)c(C)c1 as the compound, how does the IC50 [1] read?
The IC50 was over 10 µM.

What about the IC50 [2] of the same compound?
Its IC50 is over 10 µM.

What about the IC50 [3] of the same compound?
The IC50 was over 10 µM.

And the IC50 [4]?
The IC50 was over 10 µM.

And the IC50 [5]?
Its IC50 is over 10 µM.

What about the viability, T/C [6] of the same compound?
Its viability, T/C is 102%.

What about the viability, T/C [7] of the same compound?
The viability, T/C was 99.4%.

What about the viability, T/C [8] of the same compound?
Its viability, T/C is 108%.

What about the viability, T/C [9] of the same compound?
The viability, T/C was 103%.

What about the viability, T/C [10] of the same compound?
Its viability, T/C is 91.4%.

What about the viability, T/C [11] of the same compound?
The viability, T/C was 100%.

And the viability, T/C [12]?
Its viability, T/C is 105%.

And the viability, T/C [13]?
The viability, T/C was 113%.

What about the viability, T/C [14] of the same compound?
The viability, T/C was 119%.

What about the viability, T/C [15] of the same compound?
The viability, T/C was 99%.

What about the viability, T/C [16] of the same compound?
Its viability, T/C is 112%.

What about the viability, T/C [17] of the same compound?
The viability, T/C was 104%.

And the viability, T/C [18]?
Its viability, T/C is 103%.

And the viability, T/C [19]?
Its viability, T/C is 103%.

And the viability, T/C [20]?
The viability, T/C was 106%.

And the viability, T/C [21]?
Its viability, T/C is 101%.

And the viability, T/C [22]?
Its viability, T/C is 105%.

And the viability, T/C [23]?
Its viability, T/C is 96.6%.

What about the viability, T/C [24] of the same compound?
Its viability, T/C is 96%.

What about the viability, T/C [25] of the same compound?
Its viability, T/C is 94.7%.

And the viability, T/C [26]?
Its viability, T/C is 97.1%.

And the viability, T/C [27]?
The viability, T/C was 88.1%.

And the viability, T/C [28]?
The viability, T/C was 91.1%.

What about the viability, T/C [29] of the same compound?
Its viability, T/C is 96%.

What about the viability, T/C [30] of the same compound?
Its viability, T/C is 64.4%.

And the viability, T/C [31]?
Its viability, T/C is 66%.

What about the viability, T/C [32] of the same compound?
The viability, T/C was 70.1%.

What about the viability, T/C [33] of the same compound?
Its viability, T/C is 71.2%.

What about the viability, T/C [34] of the same compound?
Its viability, T/C is 69.4%.

And the viability, T/C [35]?
Its viability, T/C is 67.6%.
